How the values were obtained:
3T3-L1 Mouse Adipocytes = assay: Free fatty acid levels in cultured 3T3-L1 mouse adipocytes (isoproterenol stimulated); assay type: cell-based; details: free fatty acid in medium; 5 μM peptide, 20-22 h pre-incubation then 3 h with 0.1 nM isoproterenol; isoproterenol alone = 100%
Outline: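 3T3-L1 cells differentiated 12 days, insulin withdrawn, then peptides added on day 13 at 5 μM (0.1% DMSO) for 20-22 h at 37° C. After 3 h in assay buffer, medium free fatty acids read at 540 nm. Values expressed as percent of 0.1 nM isoproterenol-alone control.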

H4-IIE Cells = assay: Glucose production in cultured H4-IIE cells; assay type: cell-based, rat; details: glucose concentration in medium relative to untreated cells; 5 μM peptide, 24 h
Outline: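 Rat H4-IIE hepatoma cells primed overnight in glucose-free DMEM with 2 mM pyruvate and 10 mM lactate, then treated 24 h at 37 °C with 5 μM peptide (0.1% DMSO; concentration assumes ~2000 Da). Medium glucose measured colorimetrically at 570 nm. Values are percent of untreated-cell glucose production; 0.5-1 nM insulin served as inhibitor reference.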

C2C12 Cells = assay: Glucose utilization in cultured C2C12 cells (myotubes); assay type: cell-based, mouse; details: glucose concentration in medium relative to untreated cells; 5 μM peptide, 22 h
Outline: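 Differentiated mouse myotubes (5 days in 2% horse serum) serum-starved 5 h, then treated 22 h at 37 °C with peptide at 5 μM final (0.1% DMSO) in low-glucose (1 g/L) DMEM. Glucose remaining in medium measured colorimetrically at 570 nm. Expressed as percent of untreated control, from 2–3 experiments in triplicate.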

| Substance | Percent of Isoproterenol Control Activity (3T3-L1 Mouse Adipocytes) | Percent of Control Activity (H4-IIE Cells) | Percent of Control Activity (C2C12 Cells) |
| --- | --- | --- | --- |
| 192 (LGWVVGSFFMGGVWVGRSGIGGML) [compound 192] | 104% | 110% | 98% |
| 193 (LHNNPNPNTNYLPNWKQNTQMGLS) [compound 193] | 105% | 110% | 110% |
| 194 (LSPKPQQLNQQNCSPEHYEPQLKT) [compound 194] | 103% | 109% | 92% |
| 195 (LTSKYSNQPSTITHQLQLQSHPSP) [compound 195] | 110% | 108% | 112% |
| 196 (LVPFDRGDLEGELTGTGMLACVIL) [compound 196] | 98% | 116% | 97% |
| 197 (WVEVMMEVEIWCCEIVLGNSFSSQ) [compound 197] | 100% | 105% | 102% |
| 198 (PIVTIMSPSWLEVEKATIFLMSFC) [compound 198] | 112% | 100% | 88% |
| 199 (PLCKIHCRIHLYYQSLPHNNIHVP) [compound 199] | 105% | 111% | 94% |
| 200 (RLLAWGNTWWQLLWNEGLFFWLEL) [compound 200] | 104% | 97% | 93% |
| 201 (TKNFHQTPPPPLLATALKHISAKP) [compound 201] | 102% | 109% | 96% |
| 202 (MWVIEEYAKILRSWVWFNPPQLPA) [compound 202] | 93% | 103% | 89% |
| 203 (KNIEAPLAW) [compound 203] | 107% | 102% | 98% |
| 204 (RMGASIGSTTRLSTS) [compound 204] | 111% | 107% | 95% |
| 205 (VQTVSISWASEMLVLVSFVVSV) [compound 205] | 105% | 102% | 99% |
| 206 (SSSMMGEVASC) [compound 206] | 95% | 106% | 99% |
| 207 (VVGSWCWSLSWVVGMR) [compound 207] | 98% | 103% | 90% |
| 208 (CHWAGGASNTGDA) [compound 208] | 103% | 107% | 89% |
| 209 (FAVSMMWSLE) [compound 209] | 97% | 104% | 102% |
| 210 (MKVDATMDFT) [compound 210] | 95% | 100% | 92% |

Reference: patent US20220332774A1, “THERAPEUTIC MITOCHONDRIAL PEPTIDES” (priority 2019, published 2022)
